Consider one molecule from paper PMC9458111, “New 1,2,3-Triazole-Coumarin-Glycoside Hybrids and Their 1,2,4-Triazolyl Thioglycoside Analogs Targeting Mitochondria Apoptotic Pathway: Synthesis, Anticancer Activity and Docking Simulation” (Molecules, 2022).

The subject of series [1] is human breast adenocarcinoma (MDA-MB-231 cell lines). Description: MTT cytotoxicity assay, MDA-MB-231. Format: cell-based. The note with it: MDA-MB-231, 48 h. As for the experimental part: (§1) The synthesized compounds were studied for their cytotoxic activity against several human cancer cell lines, namely human osteosarcoma (HOS cell lines), human breast adenocarcinoma (MDA-MB-231 cell lines), human breast cancer (MCF-7 cell lines), human colorectal adenocarcinoma (Caco-2 cell lines) and human colon cell line (HCT-116 cell lines) using MTT assay at 100 µM, and the results were outlined as shown in Table 1.
(§2) Human osteosarcoma (HOS cell line), human breast adenocarcinoma (MDA-MB-231cell lines), human breast cancer (MCF-7 cell lines), human colorectal adenocarcinoma (Caco2 cell lines), human colon cell line (HCT-116 cell lines), normal human cell lines (BJ-1), and “a telomerase immortalized normal foreskin fibroblast cell line” were obtained from Karolinska Center, Department of Oncology and Pathology, Karolinska Institute and Hospital, Stockholm, Sweden.
(§3) Following culturing for 10 days, the cells were seeded at concentration of 10 × 10^3 cells per well in case of MCF-7 & MDA, 20 × 10^3 cells/well in a fresh complete growth medium in case of HCT-116, Caco2, & HOS and 40 × 10^3 cells/well in case of BJ-1 at 37 °C for 24 h in a water jacketed carbon dioxide incubator. After 48 h’ incubation, the medium was aspirated, and then 40 μl MTT salt (2.5 mg/mL) were added for a further 4 h; 200 μl 10% sodium dodecyl sulphate (SDS) in deionized water were added to each well and incubated overnight at 37 °C. The absorbance was measured at 595 nm with reference 690 nm. Doxorubicin was used as positive control, and 0.5% DMSO was used as negative control. IC50 values were calculated, using a probit analysis, and by utilizing the SPSS computer program (SPSS for Windows, statistical analysis software package/version 9/1989 SPSS Inc., Chicago, IL, USA).
(In general: Formazan colour is commonly taken as a measure of viable cells.)

For series [2], the system named is human osteosarcoma (HOS cell lines). Kind of series: MTT cytotoxicity assay, HOS. The conditions noted are these: 48 h. Format: cell-based. As to the method: as §1, §2, §3
In series [3] the test system is Bcl-2 protein in MCF-7 cells. Kind of series: Bcl-2 protein level in MCF-7 cells (ELISA). Format: cell-based, human. The note with it: MCF-7, 19.6 µM (IC50), 24 h. As for the experimental part: (§4) Referring to the cytotoxicity results, the 1,2,4-triazole-thioglycoside derivative 10 has a mitochondria-apoptotic effect on breast cancer cells through reduction of MTT by a mitochondrial enzyme. […] Along with that, such derivative elevated the release of cytochrome c into the cytosol in the treated MCF-7, in comparison with untreated one from 0.176 to 0.766 ng/ml due to disturbing mitochondrial outer membrane permeability (MOMP). In addition, the target 10 achieved better results than those afforded by from the standard 5-fluorouracil. Moreover, the level of caspase-7 was elevated in treated cells with the target 10 rather than that with 5-fluorouracil or the untreated cells as shown in Figure 4.
Bcl-2 (ng/mL) in the samples and standards were estimated as reported. A biotin-conjugated antibody was added followed by streptavidin-HRP. The reaction is then terminated by adding acid and absorbance was measured at 450 nm.
(§5) Figure 4 Levels of Bax, Bcl-2, Bax/Bcl-2 ratio, cytochrome c and caspase-7 protein in MCF-7 cells after treatment with compound 10 and the standard drug for 24 h compared with the untreated one, 5-flu: 5-fluorouracil as a reference drug.
Background: In an ELISA, binding on a coated surface is turned into a signal by an enzyme label.

Series [4] concerns MCF-7 cells. Kind of series: Apoptosis detection, Annexin V-FITC flow cytometry. The format is cell-based, human. As for the experimental part: (§6) Cell cycle analysis and apoptosis detection were carried out by flow cytometry. MCF-7 cells were seeded at 1–5 × 10^4 and incubated at 37 °C, 5% CO2 overnight. After treatment with the tested compound 10, for 24 h, cell pellets were collected and centrifuged (300× g, 5 min). For cell cycle analysis, cell pellets were fixed with 70% ethanol on ice for 15 min and collected again [54]. The collected pellets were incubated with propidium iodide (PI) staining solution at room temperature for 1 h. Apoptosis detection was performed by Annexin V-FITC apoptosis detection kit (BioVision, Inc, Milpitas, CA, USA) following the manufacturer’s protocol. The samples were analyzed using FACS Calibur flow cytometer (BD Biosciences, San Jose, CA).
(§7) Figure 5 Cell cycle analysis and the effect of the target 10 on the percentage of V-FITC-positive annexin staining in MCF-7 cells in comparison with the control. TEXT PRINTED IN THE PICTURE: (C) cpd10: MCF7: 6.07%; MCF7: 18.11%; MCF7: 25.44% | (D) cpd10: MCF7: %DIP G1 41.96%; MCF7: %DIP G2/M 6.61%; MCF7: %DIP S 51.43%
(In general: In flow cytometry, cells or beads pass a laser one at a time.)

Series [5] deals with Bax protein in MCF-7 cells. Kind of series: Bax protein level in MCF-7 cells (ELISA). The note with it: MCF-7, 19.6 µM (IC50), 24 h. The format is cell-based, human. As to the method:
as §4
Bax protein levels picogram per ml (Pg/mL) were evaluated according to previously reported procedure. Monoclonal antibody, specific to Bax captured on the plate, was added. After incubation, Streptavidin conjugated to Horseradish peroxidase was added. The reaction was then terminated by adding acid and optical density of the color produced measured at 450 nm.
as §5

Series [6] relates to MCF-7 cells. Description: Cell cycle analysis, PI flow cytometry. Format: cell-based, human. As for the experimental part: as §6, §7
Series [7] has as its system caspase-7 in MCF-7 cells. Description: Caspase-7 level in MCF-7 cells (ELISA). The format is cell-based, human. The note with it: MCF-7, 24 h, versus 5-fluorouracil or untreated cells. As for the experimental part:
as §4
The micro-ELISA plate was provided in this kit pre-coated with a CASP-7-specific antibody. A biotinylated CASP-7 antibody and Avidin–horseradish peroxidase (HRP) conjugate were added. Get rid of the excess components. The substrate solution was added. Wells that contain CASP-7, biotinylated detection antibody, and Avidin-HRP conjugate will appear blue in color. The color turns yellow following the addition of sulfuric acid solution. The optical density (OD) was measured at a wavelength of 450 nm ±2 nm. […]

The test system of series [8] is human colon cell line (HCT-116 cell lines). Kind of series: MTT cytotoxicity assay, HCT-116. The format is cell-based. The conditions noted are these: HCT-116, 48 h. As for the experimental part:
as §1, §2, §3

The subject of series [9] is cytochrome c in MCF-7 cells. Description: Cytochrome c release in MCF-7 cells (ELISA). The note with it: MCF-7, 19.6 µM (IC50), 24 h; untreated 0.176. The format is cell-based, human. As to the method: as §4
Cytochrome c specific antibodies have been precoated onto 96-well plates. Cytochrome c were analyzed by enzyme-linked immunosorbent assays (ELISAs) using commercial kits (ab119521; Abcam, Cambridge, MA, USA). The optimal dilutions were determined, and ELISAs were performed according to the manufacturer’s instructions.
as §5

Molecule `CCn1c(COc2ccc3c(-c4ccccc4)cc(=O)oc3c2)nnc1SC1OCC(O)C(O)C1O` [Compound 10, 4-Phenyl-7-((4-ethyl-5-(1-(β-D-xylopyranosyl)thio)-4H-1,2,4-triazol-3-yl)meth-oxy)-2H-chromen-2-one] had a melting point of 178 to 179 °C. In addition, the cytotoxicity at 100 µM in series [1] worked out at 20.6 ± 0.5%. In series [2], this molecule returned a cytotoxicity at 100 µM of 5.3 ± 0.2%. The “Downregulation of anti-apoptotic Bcl-2 protein versus untreated cells” value in series [3] amounted to 5.3 folds. Further, in series [4] (MCF-7, 19.6 µM (IC50), 24 h, untreated 0.18), the Secondary late apoptosis is recorded as 18.11%. Also, the Early apoptosis in series [4] (MCF-7, 19.6 µM (IC50), 24 h, untreated 0.47) was 25.44%. In series [4] (MCF-7, Figure 5C), the “Annexin V-FITC staining, third percentage not named in the picture text” value was found to be 6.07%. Moreover, the “Upregulation of pro-apoptotic Bax protein versus untreated cells” value in series [5] is on record as 4 folds. The “Increase in the cell percentage at the S phase versus untreated” value in series [6] (MCF-7, 19.6 µM (IC50), 24 h) is reported as 1.7 fold. The “Cell percentage at the S phase” value in series [6] (MCF-7, 19.6 µM (IC50), 24 h, untreated 29.63%) is on record as 51.43%. In series [6] (MCF-7, Figure 5D), the “%DIP G1” value amounted to 41.96% and the “%DIP G2/M” value is on record as 6.61%. Also, the “Level of caspase-7 (in words)” value in [7] is “elevated”. The molecule also displayed a cytotoxicity at 100 µM in series [8] of 27.2 ± 0.7%. The “Cytochrome c released into the cytosol” value in [9] was found to be 0.766 ng/mL.

As usually defined, the melting point is the temperature of the solid-liquid transition.
